Experimental data: patent US20120277299A1, “METHOD FOR MODULATING ION TRANSPORTER” (SUCAMPO AG, priority 2011, published 2012)

Tested on: Na^+/K^+/Cl^− cotransporter
Experiment: 86Rb uptake assay for Na+/K+/Cl− cotransporter activity in A7r5 cells
Type: cell-based, Rat
Settings: for effect on 86Rb uptake (activation of Na+/K+/Cl− cotransporter): 0.01 μM to 10 μM; for % control activity: 86Rb uptake, 10 min at 37° C.
Description: The effect of Compound 1 ((−)-7-[(2R,4aR,5R,7aR)-2-(1,1-difluoropentyl)-2-hydroxy-6-oxooctahydrocyclopenta[b]pyran-5-yl]heptanoic acid) and Compound 2 ((−)-7-{(2R,4aR,5R,7aR)-2-[(3S)-1,1-difluoro-3-methylpentyl]-2-hydroxy-6-oxooctahydrocyclopenta[b]pyran-5-yl}heptanoic acid) on […] cotransporter were assessed by ^86Rb uptake. Rat aorta-derived smooth muscle cells (A7r5) cells were cultured to sub-confluent on culture dishes and used for the assay. The culture medium was removed and replaced by uptake medium that contains labeled isotope (47 μM ^86Rb) and each compound.
After 10 min incubation at 37° C., uptake medium was removed and extracellular radioactivity was washed using 0.1M […] solution. The cells were harvested in 0.1M NaOH and the radioactivity incorporated by the cells was determined. Compound1 and 2 were tested at concentrations ranging from 0.01 μM to 10 μM and each determination was made in duplicate.

Structure (SMILES)	effect on 86Rb uptake (activation of Na+/K+/Cl− cotransporter)	% control activity (compound 0.01 μM)	% control activity (compound 0.03 μM)	% control activity (compound 0.1 μM)	% control activity (compound 0.3 μM)	% control activity (compound 1 μM)	% control activity (compound 3 μM)	% control activity (compound 10 μM)
CCCCC(F)(F)[C@@]1(O)CC[C@H]2[C@@H](CC(=O)[C@@H]2CCCCCCC(=O)O)O1 [Compound 1, (−)-7-[(2R,4aR,5R,7aR)-2-(1,1-difluoropentyl)-2-hydroxy-6-oxooctahydrocyclopenta[b]pyran-5-yl]heptanoic acid]	increased ^86Rb uptake concentration-dependently	82.7%	115.7%	122.6%	133.2%	134.2%	152.3%	175.5%
CC[C@H](C)CC(F)(F)[C@@]1(O)CC[C@H]2[C@@H](CC(=O)[C@@H]2CCCCCCC(=O)O)O1 [Compound 2, (−)-7-{(2R,4aR,5R,7aR)-2-[(3S)-1,1-difluoro-3-methylpentyl]-2-hydroxy-6-oxooctahydrocyclopenta[b]pyran-5-yl}heptanoic acid]	increased ^86Rb uptake concentration-dependently	108.1%	143.0%	157.4%	171.3%	168.5%	213.6%	205.1%
